From patent US5854204A, “Aβ peptides that modulate β-amyloid aggregation” (priority 1996, dated 1998)
Like-named read-outs stand apart in the source and are kept apart here. Numbered stars: 1 amine (or outer) side, 2 acyl side, 3 side chain; on linkers, the order of the positions; unused ones are H or OH. Square brackets hold non-standard residues; d marks the D form. Ends that are not written are not given here. Peptide text beside a SMILES is read from it. * marks the point of attachment. Cholyl = C[C@H](CCC(=O)*)[C@H]1CC[C@H]2[C@@H]3[C@H](O)C[C@@H]4C[C@H](O)CC[C@]4(C)[C@H]3C[C@H](O)[C@]12C; X2 = O=C(C1(O)C[C@H](O)[C@@H](N[*:1])[C@H]([C@H](O)[C@H](O)CO)O1)[*:2]; Tyr(3-I) = N[C@@H](Cc1ccc(O)c(I)c1)C(=O)O

How the values were obtained:
Aβ1-40 [1] = molecular target: T1, Aβ1-40 (Homo sapiens, UniProt P05067);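 also: Aβ nucleation assay tracking fiber polymerization from monomer by turbidity (light scattering), shaken continuously in 96-well plates, read every 15 min over 5 h, compared with compound-free control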
Source text: (§1) The nucleation assay is employed to determine the ability of test compounds to alter (e.g. inhibit) the early events in formation of β-AP fibers from monomeric β-AP. […] The time delay before polymerization of β-AP monomer can be quantified as well as the extent of formation of insoluble fiber by light scattering (turbidity). Polymerization reaches equilibrium when the maximum turbidity reaches a plateau. […] The threshold of sensitivity for the measurement of turbidity is in the range of 15-20 μM β-AP. […] This assay can be performed using stirring or shaking to accelerate polymerization, thereby increasing the speed of the assay. Moreover the assay can be adapted to a 96-well plate format to screen multiple compounds.
(§2) HFIP-solubilized peptide is sonicated in a waterbath sonicator for 5 min at highest setting, then evaporated to dryness under a stream of argon. […] Test compounds are dissolved in DMSO at a 100× concentration. […] Ten microliters of the mixture is then added to the bottom of a well of a Corning Costar ultra low binding 96-well plate (Corning Costar, Cambridge Mass.; cat. No. 2500). […] The plate is then returned to the shaker and shaken continuously for 5 hours. Turbidity readings are taken at 15 minute intervals.
(§3) Accordingly a fold increase in lag time of 1.0 indicates no change in lag time, whereas numbers >1.0 indicate an increase in lag time. The "% inhibition of plateau", which is a measure of the ability of the compound to decrease the total amount of aggregation, refers to the reduction of the final turbidity in the presence of the test compound expressed as a percent of the control without the test compound.

Aβ1-40 [2] = molecular target: T1, Aβ1-40; assay: biochemical; settings: read-out: % Inucl'n (percent reduction in maximum turbidity)
Source text: as §1, §2, §3

[3] = Table VI, unmodified peptides, 100 mole %

T1 sequence (P05067 672-711): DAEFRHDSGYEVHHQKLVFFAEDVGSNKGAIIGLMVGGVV

| Compound | % Inhibition of Plateau (Aβ1-40 [1]) | Fold Increase in Lag Time (Aβ1-40 [1]; [3]) | inhibition at 100 % (Aβ1-40 [2]) | also measured |
| --- | --- | --- | --- | --- |
| CC[C@H](C)[C@H](NC(=O)[C@H](C)NC(=O)CNC(=O)[C@H](CCCCN)NC(=O)[C@H](CC(N)=O)NC(=O)[C@H](CO)NC(=O)[C@H](Cc1ccccc1)NC(=O)[C@H](Cc1ccccc1)NC(=O)[C@@H](NC(=O)[C@H](CC(C)C)NC(=O)[C@H](CCCCN)NC(=O)[C@H](CCC(N)=O)NC(=O)[C@H](Cc1c[nH]cn1)NC(=O)[C@H](Cc1c[nH]cn1)NC(=O)[C@@H](NC(=O)[C@H](CCC(=O)O)NC(=O)[C@H](Cc1ccc(O)cc1)NC(=O)CNC(=O)[C@H](CO)NC(=O)[C@H](CC(=O)O)NC(=O)[C@H](Cc1c[nH]cn1)NC(=O)[C@H](CCCNC(=N)N)NC(=O)[C@H](Cc1ccccc1)NC(=O)[C@H](CCC(=O)O)NC(=O)[C@H](C)NC(=O)[C@@H](N)CC(=O)O)C(C)C)C(C)C)C(=O)N[C@H](C(=O)NCC(=O)N[C@@H](CC(C)C)C(=O)N[C@@H](CCSC)C(=O)N[C@H](C(=O)NCC(=O)NCC(=O)N[C@H](C(=O)N[C@H](C(=O)O)C(C)C)C(C)C)C(C)C)[C@@H](C)CC [PPI-249, Aβ1-20, 26-40 (Δ21-25)] | ~ 0% | 2.37 fold |  |  |
| CC[C@H](C)[C@H](NC(=O)[C@H](C)NC(=O)CNC(=O)[C@H](CCCCN)NC(=O)[C@H](CC(N)=O)NC(=O)[C@H](CO)NC(=O)CNC(=O)[C@@H](NC(=O)[C@H](CC(=O)O)NC(=O)[C@H](CCC(=O)O)NC(=O)[C@H](C)NC(=O)[C@H](CCC(N)=O)NC(=O)[C@H](Cc1c[nH]cn1)NC(=O)[C@H](Cc1c[nH]cn1)NC(=O)[C@@H](NC(=O)[C@H](CCC(=O)O)NC(=O)[C@H](Cc1ccc(O)cc1)NC(=O)CNC(=O)[C@H](CO)NC(=O)[C@H](CC(=O)O)NC(=O)[C@H](Cc1c[nH]cn1)NC(=O)[C@H](CCCNC(=N)N)NC(=O)[C@H](Cc1ccccc1)NC(=O)[C@H](CCC(=O)O)NC(=O)[C@H](C)NC(=O)[C@@H](N)CC(=O)O)C(C)C)C(C)C)C(=O)N[C@H](C(=O)NCC(=O)N[C@@H](CC(C)C)C(=O)N[C@@H](CCSC)C(=O)N[C@H](C(=O)NCC(=O)NCC(=O)N[C@H](C(=O)N[C@H](C(=O)O)C(C)C)C(C)C)C(C)C)[C@@H](C)CC [PPI-250, Aβ1-15, 21-40 (Δ16-20)] | ~ 0% | 1.55 fold |  |  |
| CC[C@H](C)[C@H](NC(=O)[C@H](C)NC(=O)CNC(=O)[C@H](CCCCN)NC(=O)[C@H](CC(N)=O)NC(=O)[C@H](CO)NC(=O)CNC(=O)[C@@H](NC(=O)[C@H](CC(=O)O)NC(=O)[C@H](CCC(=O)O)NC(=O)[C@H](C)NC(=O)[C@H](Cc1ccccc1)NC(=O)[C@H](Cc1ccccc1)NC(=O)[C@@H](NC(=O)[C@H](CC(C)C)NC(=O)[C@H](CCCCN)NC(=O)[C@H](Cc1ccc(O)cc1)NC(=O)CNC(=O)[C@H](CO)NC(=O)[C@H](CC(=O)O)NC(=O)[C@H](Cc1c[nH]cn1)NC(=O)[C@H](CCCNC(=N)N)NC(=O)[C@H](Cc1ccccc1)NC(=O)[C@H](CCC(=O)O)NC(=O)[C@H](C)NC(=O)[C@@H](N)CC(=O)O)C(C)C)C(C)C)C(=O)N[C@H](C(=O)NCC(=O)N[C@@H](CC(C)C)C(=O)N[C@@H](CCSC)C(=O)N[C@H](C(=O)NCC(=O)NCC(=O)N[C@H](C(=O)N[C@H](C(=O)O)C(C)C)C(C)C)C(C)C)[C@@H](C)CC [PPI-251, Aβ1-10, 16-40 (Δ11-15)] | ~ 0% | ~ 1.2 fold |  |  |
| C[C@H](CCC(=O)O)[C@H]1CC[C@H]2[C@@H]3[C@H](O)C[C@@H]4C[C@H](O)CC[C@]4(C)[C@H]3C[C@H](O)[C@]12C [PPI-293, Cholic acid, reference compound] |  |  | 0% | inhibitory activity on Aβ aggregation (Aβ1-40 [1]): had no effect on Aβ aggregation |
| CC(C)C[C@H](NC(=O)[C@H](CCCCN)NC(=O)[C@H](CCC(N)=O)NC(=O)[C@H](Cc1c[nH]cn1)NC(=O)CC[C@@H](C)[C@H]1CC[C@H]2[C@@H]3[C@H](O)C[C@@H]4C[C@H](O)CC[C@]4(C)[C@H]3C[C@H](O)[C@]12C)C(=O)N[C@H](C(=O)N[C@@H](Cc1ccccc1)C(=O)N[C@@H](Cc1ccccc1)C(N)=O)C(C)C [PPI-315] (Cholyl-HQKLVFF-NH2) |  |  |  | inhibition at 33 % (Aβ1-40 [2]): 5% |
| CC(=O)N[C@H]1[C@H]([C@H](O)[C@H](O)CO)OC(O)(C(=O)N[C@@H](Cc2c[nH]cn2)C(=O)N[C@@H](CCC(N)=O)C(=O)N[C@@H](CCCCN)C(=O)N[C@@H](CC(C)C)C(=O)N[C@H](C(=O)N[C@@H](Cc2ccccc2)C(=O)N[C@@H](Cc2ccccc2)C(N)=O)C(C)C)C[C@@H]1O (stereo partly shown) [PPI-316] (Ac-[X2]HQKLVFF-NH2) |  |  | -15% |  |
| CC(C)C[C@H](NC(=O)[C@H](CCCCN)NC(=O)[C@H](CCC(N)=O)NC(=O)[C@H](Cc1c[nH]cn1)NC(=O)[C@H](Cc1c[nH]cn1)NC(=O)[C@@H](NC(=O)[C@H](CCC(=O)O)NC(=O)[C@H](Cc1ccc(O)cc1)NC(=O)CNC(=O)[C@H](CO)NC(=O)[C@H](CC(=O)O)NC(=O)[C@H](Cc1c[nH]cn1)NC(=O)CC[C@@H](C)[C@H]1CC[C@H]2[C@@H]3[C@H](O)C[C@@H]4C[C@H](O)CC[C@]4(C)[C@H]3C[C@H](O)[C@]12C)C(C)C)C(=O)N[C@H](C(=O)N[C@@H](Cc1ccccc1)C(N)=O)C(C)C [PPI-321] (Cholyl-HDSGYEVHHQKLVF-NH2) |  |  |  | inhibitory activity on Aβ aggregation (Aβ1-40 [1]): loss of inhibitory activity; Fold Increase in Lag Time (Aβ1-40 [1]; Table III, 33 mole %): 1.4 fold; Fold Increase in Lag Time (Aβ1-40 [1]; Table IV, 100 mole %): 1.2 fold |
| CC(C)[C@H](NC(=O)[C@H](CCC(=O)O)NC(=O)[C@H](Cc1ccc(O)cc1)NC(=O)CNC(=O)[C@H](CO)NC(=O)[C@H](CC(=O)O)NC(=O)[C@H](Cc1c[nH]cn1)NC(=O)CC[C@@H](C)[C@H]1CC[C@H]2[C@@H]3[C@H](O)C[C@@H]4C[C@H](O)CC[C@]4(C)[C@H]3C[C@H](O)[C@]12C)C(=O)N[C@@H](Cc1c[nH]cn1)C(=O)N[C@@H](Cc1c[nH]cn1)C(N)=O [PPI-331] (Cholyl-HDSGYEVHH-NH2) | 29% |  |  |  |
| C[C@H](CCC(=O)N[C@@H](Cc1c[nH]cn1)C(=O)N[C@@H](CC(=O)O)C(=O)N[C@@H](CO)C(=O)NCC(=O)N[C@@H](Cc1ccc(O)cc1)C(N)=O)[C@H]1CC[C@H]2[C@@H]3[C@H](O)C[C@@H]4C[C@H](O)CC[C@]4(C)[C@H]3C[C@H](O)[C@]12C [PPI-339] (Cholyl-HDSGY-NH2) | 13% |  |  |  |
| CC(C)C[C@H](NC(=O)[C@H](CCCCN)NC(=O)[C@H](CCC(N)=O)NC(=O)[C@H](Cc1c[nH]cn1)NC(=O)[C@H](Cc1c[nH]cn1)NC(=O)[C@@H](NC(=O)CC[C@@H](C)[C@H]1CC[C@H]2[C@@H]3[C@H](O)C[C@@H]4C[C@H](O)CC[C@]4(C)[C@H]3C[C@H](O)[C@]12C)C(C)C)C(=O)N[C@H](C(=O)N[C@@H](Cc1ccccc1)C(=O)N[C@@H](Cc1ccccc1)C(=O)O)C(C)C [PPI-346] (Cholyl-VHHQKLVFF-OH) | ~ 0% |  |  |  |
| CC(C)C[C@H](NC(=O)[C@H](CCCCN)NC(=O)[C@H](CCC(N)=O)NC(=O)CC[C@@H](C)[C@H]1CC[C@H]2[C@@H]3[C@H](O)C[C@@H]4C[C@H](O)CC[C@]4(C)[C@H]3C[C@H](O)[C@]12C)C(=O)N[C@H](C(=O)N[C@@H](Cc1ccccc1)C(=O)O)C(C)C [PPI-366] (Cholyl-QKLVF-OH) | ~ 0% |  |  |  |
| CC(C)C[C@H](NC(=O)CC[C@@H](C)[C@H]1CC[C@H]2[C@@H]3[C@H](O)C[C@@H]4C[C@H](O)CC[C@]4(C)[C@H]3C[C@H](O)[C@]12C)C(=O)N[C@H](C(=O)N[C@@H](Cc1ccccc1)C(=O)N[C@@H](C)C(=O)N[C@@H](C)C(=O)O)C(C)C [PPI-391] (Cholyl-LVFAA-OH) |  |  | 40% |  |
| CC(C)C[C@H](NC(=O)CC[C@@H](C)[C@H]1CC[C@H]2[C@@H]3[C@H](O)C[C@@H]4C[C@H](O)CC[C@]4(C)[C@H]3C[C@H](O)[C@]12C)C(=O)N[C@H](C(=O)N[C@@H](Cc1ccc(O)c(I)c1)C(=O)N[C@@H](Cc1ccccc1)C(=O)N[C@@H](C)C(=O)O)C(C)C [PPI-396] (Cholyl-LV[Tyr(3-I)]FA-OH) |  |  | 100% |  |
| CC(C)C[C@H](NC(=O)CC[C@@H](C)[C@H]1CC[C@H]2[C@@H]3[C@H](O)C[C@@H]4C[C@H](O)CC[C@]4(C)[C@H]3C[C@H](O)[C@]12C)C(=O)N[C@H](C(=O)N[C@@H](Cc1ccccc1)C(=O)N[C@@H](Cc1ccc(O)c(I)c1)C(=O)N[C@@H](C)C(=O)O)C(C)C [PPI-397] (Cholyl-LVF[Tyr(3-I)]A-OH) |  |  | 95% |  |
| CC(C)[C@H](NC(=O)[C@H](C)NC(=O)CC[C@@H](C)[C@H]1CC[C@H]2[C@@H]3[C@H](O)C[C@@H]4C[C@H](O)CC[C@]4(C)[C@H]3C[C@H](O)[C@]12C)C(=O)N[C@@H](C)C(=O)N[C@@H](Cc1ccccc1)C(=O)N[C@@H](C)C(=O)O [PPI-400] (Cholyl-AVAFA-OH) |  |  | -15% |  |
| CC(C)C[C@H](NC(=O)CC[C@@H](C)[C@H]1CC[C@H]2[C@@H]3CC[C@@H]4C[C@H](O)CC[C@]4(C)[C@H]3C[C@H](O)[C@]12C)C(=O)N[C@H](C(=O)N[C@@H](Cc1ccccc1)C(=O)N[C@@H](Cc1ccccc1)C(=O)N[C@@H](C)C(=O)O)C(C)C [PPI-424] |  |  |  | % Inucl'n (percent reduction in maximum turbidity) (Aβ1-40 [1]): -114% |
| CC(C)C[C@@H](NC(=O)CC[C@@H](C)[C@H]1CC[C@H]2[C@@H]3[C@H](O)C[C@@H]4C[C@H](O)CC[C@]4(C)[C@H]3C[C@H](O)[C@]12C)C(=O)N[C@@H](C(=O)N[C@H](Cc1ccccc1)C(=O)N[C@H](Cc1ccccc1)C(=O)N[C@H](C)C(=O)O)C(C)C [PPI-433] |  |  | 27% |  |
| CC(C)C[C@H](NC(=O)OC(C)(C)C)C(=O)N[C@H](C(=O)N[C@@H](Cc1ccccc1)C(=O)N[C@@H](Cc1ccccc1)C(=O)N[C@@H](C)C(=O)O)C(C)C [PPI-435] |  |  |  | % Inucl'n (percent reduction in maximum turbidity) (Aβ1-40 [1]): -5%; ΔLag (ratio of lag time with test compound to lag time of control) (Aβ1-40 [1]; Table V, 100 mole % inhibitor relative to Aβ1-40): 3.0 |
| C[C@H](CCC(=O)NCC(=O)N[C@@H](Cc1ccccc1)C(=O)N[C@@H](Cc1ccccc1)C(=O)O)[C@H]1CC[C@H]2[C@@H]3[C@H](O)C[C@@H]4C[C@H](O)CC[C@]4(C)[C@H]3C[C@H](O)[C@]12C [PPI-438] |  |  | 0% |  |
| AEDVGSNKGAIIGLM [PPI-229, Aβ21-35] | ~ 0% | ~ 1 fold |  |  |
| HDSGYEVHHQKLVFF [PPI-226, Aβ6-20] | 76% | 1.66 fold |  |  |
| KLVFFAEDVGSNKGA [PPI-228, Aβ16-30] | 100% | > 4.5 fold |  |  |
| SNKGAIIGLMVGGVV [PPI-230, Aβ26-40] | ~ 0% | 0.8 fold |  |  |
